The IC50 is the concentration at which inhibition is half-maximal. Higher therefore signals weaker potency.

The target of this experiment is T1, Mdm2/p53 binding (GST-Mdm2 / His-p53) (Homo sapiens, UniProt Q00987, L33E).
T1 construct: Mdm2 partial protein having Mdm2 amino acids at positions 25 to 108
T1 sequence (Q00987 25-108 L33E): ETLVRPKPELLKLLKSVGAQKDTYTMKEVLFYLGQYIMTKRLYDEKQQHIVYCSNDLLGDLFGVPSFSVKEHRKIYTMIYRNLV
Description: Mdm2/p53 binding assay (HTRF, His-p53 and GST-Mdm2). The settings on record: His-p53 (aa 1-132) and GST-Mdm2 (aa 25-108, L33E) 6.25 nM each; 25°C, 1 hour; values given as ranges. In outline: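 His-p53 (aa 1–132) and GST-Mdm2 (aa 25–108, L33E) were prepared at 6.25 nM each in the protein dilution (20 mM HEPES pH 7.4, 150 mM NaCl, 0.1% BSA). Compound in 10% DMSO buffer and XL665 anti-His/Eu anti-GST antibodies (KF buffer) were added, with 1 h at 25 °C. The 665/620 nm TR-FRET ratio gave T/C and a sigmoid-fitted IC50.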
On the technique in general: In TR-FRET formats the signal depends on donor and acceptor labels being close together.
Take `CC1(C)CCC2(CC1)N[C@@H](C(=O)N[C@@H]1CC[C@@H](C(N)=O)OC1)[C@H](c1ccnc(Cl)c1F)[C@]21C(=O)Nc2nc(Cl)ccc21` [Example 71, (3′R, 4′S, S′R)—N-[(3R,6S)-6-carbamoyltetrahydro-2H-pyran-3-yl]-6″-chloro-4′-(2-chloro-3-fluoropyridin-4-yl)-4,4-dimethyl-2″-oxo-1″,2″-dihydrodispiro[cyclohexane-1,2′-pyrrolidine-3′,3″-pyrrolo[2,3-b]pyridine]-5′-carboxamide]: the IC50 lay within 0.001 to 0.05 µM.

The compound `CC1(C)CCC2(CC1)N[C@@H](C(=O)N[C@H]1CC[C@H](N3CC(O)C3)CC1)[C@H](c1ccnc(Cl)c1F)[C@]21C(=O)Nc2cc(Cl)ccc21` [Example 72, (3′R, 4′S,5′R)-6″-chloro-4′-(2-chloro-3-fluoropyridin-4-yl)-N-[trans-4-(3-hydroxyazetidine-1-yl)cyclohexyl]-4,4-dimethyl-2″-oxo-1″,2″-dihydrodispiro[cyclohexane-1,2′-pyrrolidine-3′,3″-indole]-5′-carboxamide] came in with an IC50 of 0.001 to 0.05 µM.

`CO[C@]1(CO)CC[C@H](NC(=O)[C@@H]2NC3(CCC(C)(C)CC3)[C@@]3(C(=O)Nc4cc(Cl)ccc43)[C@H]2c2cccc(Cl)c2F)CC1` [Example 73, (3′R, 4′S,5′R)-6″-chloro-4′-(3-chloro-2-fluorophenyl)-N-[cis-4-(hydroxymethyl)-4-methoxycyclohexyl]-4,4-dimethyl-2″-oxo-1″,2″-dihydrodispiro[cyclohexane-1,2′-pyrrolidine-3′,3″-indole]-5′-carboxamide] showed an IC50 of 0.05 to 0.1 µM.

On to `CO[C@]1(CO)CC[C@@H](NC(=O)[C@@H]2NC3(CCC(C)(C)CC3)[C@@]3(C(=O)Nc4cc(Cl)ccc43)[C@H]2c2cccc(Cl)c2F)CC1` [Example 74, (3′R, 4′S,5′R)-6″-chloro-4′-(3-chloro-2-fluorophenyl)-N-[trans-4-(hydroxymethyl)-4-methoxycyclohexyl]-4,4-dimethyl-2″-oxo-1″,2″-dihydrodispiro[cyclohexane-1,2′-pyrrolidine-3′,3″-indole]-5′-carboxamide], for which the IC50 lay within 0.05 to 0.1 µM.

Take `CC1(C)CC2(C1)N[C@@H](C(=O)N[C@@H]1CC[C@@H](CO)OC1)[C@H](c1cccc(Cl)c1F)[C@]21C(=O)Nc2nc(Cl)ccc21` [Example 79, (3′R, 4′S,5′R)-6″-chloro-4′-(3-chloro-2-fluorophenyl)-N-[(3R,6S)-6-(hydroxymethyl)tetrahydro-2H-pyran-3-yl]-3,3-dimethyl-2″-oxo-1″,2″-dihydrodispiro[cyclobutane-1,2′-pyrrolidine-3′,3″-pyrrolo[2,3-b]pyridine]-5′-carboxamide]: the IC50 lay in the range of 0.05 to 0.1 µM.

`COC[C@]1(O)CC[C@@H](NC(=O)[C@@H]2NC3(CCC(C)(C)CC3)[C@@]3(C(=O)Nc4nc(Cl)ccc43)[C@H]2c2ccnc(Cl)c2F)CC1` [Example 80, (3′R, 4′S,5′R)-6″-chloro-4′-(2-chloro-3-fluoropyridin-4-yl)-N-[cis-4-hydroxy-4-(methoxymethyl)cyclohexyl]-4,4-dimethyl-2″-oxo-1″,2″-dihydrodispiro[cyclohexane-1,2′-pyrrolidine-3′,3″-pyrrol[2,3-b]pyridine]-5′-carboxamide] gave an IC50 of 0.05 to 0.1 µM.

`CO[C@]1(CO)CC[C@@H](NC(=O)[C@@H]2NC3(CCC(C)(C)CC3)[C@@]3(C(=O)Nc4nc(Cl)ccc43)[C@H]2c2cccc(Cl)c2F)CC1` [Example 81, (3′R, 4′S,5′R)-6″-chloro-4′-(3-chloro-2-fluorophenyl)-N-[trans-4-(hydroxymethyl)-4-methoxycyclohexyl]-4,4-dimethyl-2″-oxo-1″,2″-dihydrodispiro[cyclohexane-1,2′-pyrrolidine-3′,3″-pyrrolo[2,3-b]pyridine]-5′-carboxamide] came in with an IC50 of 0.001 to 0.05 µM.

Regarding `CO[C@]1(CO)CC[C@@H](NC(=O)[C@@H]2NC3(CCC(C)(C)CC3)[C@@]3(C(=O)Nc4nc(Cl)ccc43)[C@H]2c2ccnc(Cl)c2F)CC1` [Example 82, (3′R, 4′S,5′R)-6″-chloro-4′-(2-chloro-3-fluoropyridin-4-yl)-N-[trans-4-(hydroxymethyl)-4-methoxycyclohexyl]-4,4-dimethyl-2″-oxo-1″,2′-dihydrodispiro[cyclohexane-1,2′-pyrrolidine-3′,3″-pyrrolo[2,3-b]pyridine]-5′-carboxamide], the IC50 was in the range of 0.001 to 0.05 µM.

For the compound `CO[C@]1(CO)CC[C@H](NC(=O)[C@@H]2NC3(CCC(C)(C)CC3)[C@@]3(C(=O)Nc4nc(Cl)ccc43)[C@H]2c2ccnc(Cl)c2F)CC1` [Example 83, (3′R, 4′S,5′R)-6″-chloro-4′-(2-chloro-3-fluoropyridin-4-yl)-N-[cis-4-(hydroxymethyl)-4-methoxycyclohexyl]-4,4-dimethyl-2″-oxo-1″,2″-dihydrodispiro[cyclohexane-1,2′-pyrrolidine-3′,3″-pyrrolo[2,3-b]pyridine]-5′-carboxamide], the IC50 lay in the range of 0.001 to 0.05 µM.

`O=C(N[C@@H]1CC[C@@H](CO)OC1)[C@@H]1NC2(CC(CF)(CF)C2)[C@@]2(C(=O)Nc3nc(Cl)ccc32)[C@H]1c1cccc(Cl)c1F` [Example 84, (3′R, 4′S,5′R)-6″-chloro-4′-(3-chloro-2-fluorophenyl)-3,3-bis(fluoromethyl)-N-[(3R,6S)-6-(hydroxymethyl)tetrahydro-2H-pyran-3-yl]-2″-oxo-1″,2″-dihydrodispiro[cyclobutane-1,2′-pyrrolidine-3′,3″-pyrrolo[2,3-b]pyridine]-5′-carboxamide]: the IC50 was 0.05 to 0.1 µM.

Take `CC1(C)CCC2(CC1)N[C@@H](C(=O)N[C@H]1CC[C@](O)(CS(C)(=O)=O)CC1)[C@H](c1ccnc(Cl)c1F)[C@]21C(=O)Nc2cc(Cl)ccc21` [Example 87, (3′R, 4′S,5′R)-6″-chloro-4′-(2-chloro-3-fluoropyridin-4-yl)-N-{cis-4-hydroxy-4-[(methylsulfonyl)methyl]cyclohexyl}-4,4-dimethyl-2″-oxo-1″,2′-dihydrodispiro[cyclohexane-1,2′-pyrrolidine-3′,3″-indole]-5′-carboxamide]: the IC50 lay in the range of 0.001 to 0.05 µM.

For the compound `O=C(N[C@@H]1CC[C@@H](CO)OC1)[C@@H]1NC2(CC(CF)(CF)C2)[C@@]2(C(=O)Nc3cc(Cl)ccc32)[C@H]1c1ccnc(Cl)c1F` [Example 91, (3′R, 4′S,5′R)-6″-chloro-4′-(2-chloro-3-fluoropyridin-4-yl)-3,3-bis(fluoromethyl)-N-[(3R,6S)-6-(hydroxymethyl)tetrahydro-2H-pyran-3-yl]-2″-oxo-1″,2″-dihydrodispiro[cyclobutane-1,2′-pyrrolidine-3′,3″-indole]-5′-carboxamide], the concentration for half-maximal inhibition (IC50) is 0.05 to 0.1 µM.

In turn, `CC1(C)CCC2(CC1)N[C@@H](C(=O)N[C@@H]1CC[C@@H](CO)OC1)[C@H](c1cncc(Cl)c1)[C@]21C(=O)Nc2cc(Cl)ccc21` [Example 92, (3′R, 4′R, 5′R)-6″-chloro-4′-(5-chloropyridin-3-yl)-N-[(3R,6S)-6-(hydroxymethyl)tetrahydro-2H-pyran-3-yl]-4,4-dimethyl-2″-oxo-1″,2″-dihydrodispiro[cyclohexane-1,2′-pyrrolidine-3′,3″-indole]-5′-carboxamide] displayed an IC50 of 0.001 to 0.05 µM.

For the compound `O=C(N[C@H]1CC[C@H](c2nnco2)CC1)[C@@H]1NC2(CC(CF)(CF)C2)[C@@]2(C(=O)Nc3cc(Cl)ccc32)[C@H]1c1ccnc(Cl)c1F` [Example 95, (3′R, 4′S,5′R)-6″-chloro-4′-(2-chloro-3-fluoropyridin-4-yl)-3,3-bis(fluoromethyl)-N-[trans-4-(1,3,4-oxadiazol-2-yl)cyclohexyl]-2″-oxo-1″,2′-dihydrodispiro[cyclobutane-1,2′-pyrrolidine-3′,3″-indole]-5′-carboxamide], the IC50 was 0.05 to 0.1 µM.

Turning to `CC1(C)CCC2(CC1)N[C@@H](C(=O)N[C@@H]1CC[C@@H](CS(C)(=O)=O)OC1)[C@H](c1ccnc(Cl)c1F)[C@]21C(=O)Nc2cc(Cl)ccc21` [Example 98, (3′R, 4′S,5′R)-6″-chloro-4′-(2-chloro-3-fluoropyridin-4-yl)-4,4-dimethyl-N-{(3R,6S)-6-[(methylsulfonyl)methyl]tetrahydro-2H-pyran-3-yl}-2″-oxo-1″,2″-dihydrodispiro[cyclohexane-1,2′-pyrrolidine-3′,3″-indole]-5′-carboxamide], the IC50 is 0.05 to 0.1 µM.

`CNC(=O)[C@@H]1CC[C@@H](NC(=O)[C@@H]2NC3(CCC(C)(C)CC3)[C@@]3(C(=O)Nc4nc(Cl)ccc43)[C@H]2c2ccnc(Cl)c2F)CO1` [Example 101, (3′R, 4′S,5′R)-6″-chloro-4′-(2-chloro-3-fluoropyridin-4-yl)-4,4-dimethyl-N-[(3R,6S)-6-(methylcarbamoyl)tetrahydro-2H-pyran-3-yl]-2″-oxo-1″,2″-dihydrodispiro[cyclohexane-1,2′-pyrrolidine-3′,3″-pyrrolo[2,3-b]pyridine]-5′-carboxamide] registered an IC50 of 0.001 to 0.05 µM.

In turn, `CC1(C)CCC2(CC1)N[C@@H](C(=O)N[C@@H]1CC[C@@H](C(=O)NC3CC3)OC1)[C@H](c1ccnc(Cl)c1F)[C@]21C(=O)Nc2nc(Cl)ccc21` [Example 102, (3′R, 4′S,5′R)-6″-chloro-4′-(2-chloro-3-fluoropyridin-4-yl)-N-[(3R,6S)-6-(cyclopropylcarbamoyl)tetrahydro-2H-pyran-3-yl]-4,4-dimethyl-2″-oxo-1″,2″-dihydrodispiro[cyclohexane-1,2′-pyrrolidine-3′,3″-pyrrolo[2,3-b]pyridine]-5′-carboxamide] displayed an IC50 of 0.001 to 0.05 µM.

Regarding `CC1(C)CCC2(CC1)N[C@@H](C(=O)N[C@@H]1CC[C@@H](C(=O)NCCO)OC1)[C@H](c1ccnc(Cl)c1F)[C@]21C(=O)Nc2cc(Cl)ccc21` [Example 103, (3′R, 4′S,5′R)-6″-chloro-4′-(2-chloro-3-fluoropyridin-4-yl)-N-{(3R,6S)-6-[(2-hydroxyethyl)carbamoyl]tetrahydro-2H-pyran-3-yl}-4,4-dimethyl-2″-oxo-1″,2″-dihydrodispiro[cyclohexane-1,2′-pyrrolidine-3′,3″-indole]-5′-carboxamide], the 50% inhibitory concentration (IC50) was 0.001 to 0.05 µM.
